Laboratory results reported in ChEMBL document CHEMBL5104094, “Chemistry, biosynthesis and biological activity of terpenoids and meroterpenoids in bacteria and fungi isolated from different marine habitats” (Eur J Med Chem, 2021).
Values after ≈ are worked out from the molar mass of the structure shown.

Experiments:
Edwardsiella tarda = assay: Antimicrobial activity against Edwardsiella tarda assessed as microbial growth inhibition; type: functional
[1] = tested on: Ceratobasidium cornigerum; assay: Antimicrobial activity against Ceratobasidium cornigerum assessed as microbial growth inhibition; type: functional

MIC (Edwardsiella tarda): 0.25 µg/mL (≈ 0.462 µM) | MIC [1]: 0.5 µg/mL (≈ 0.925 µM)
SMILES: C=C(C)[C@H]1[C@H](OC(C)=O)C[C@H](C)[C@@]12CC=C(C)[C@@H](OC(=O)CCCCCCC/C=C\C/C=C\CCCCC)C2
